Reference: ChEMBL document CHEMBL5230098, “The ups and downs of Poly(ADP-ribose) Polymerase-1 inhibitors in cancer therapy-Current progress and future direction” (Eur J Med Chem, 2020)

Columns and labels:
[1] = biological target: Poly [ADP-ribose] polymerase 1 (Homo sapiens, UniProt P09874); assay: Inhibition of PARP1 (unknown origin)
[2] = Aqueous solubility of compound; format: physicochemical
[3] = Oral bioavailability in Sprague-Dawley rat at 4 mg/kg administered as single dose measured for 24 hrs by HPLC/tandem mass spectrometry; format: ADME, organism-based; details: in vivo

Sequence of Poly [ADP-ribose] polymerase 1 (P09874 whole entry): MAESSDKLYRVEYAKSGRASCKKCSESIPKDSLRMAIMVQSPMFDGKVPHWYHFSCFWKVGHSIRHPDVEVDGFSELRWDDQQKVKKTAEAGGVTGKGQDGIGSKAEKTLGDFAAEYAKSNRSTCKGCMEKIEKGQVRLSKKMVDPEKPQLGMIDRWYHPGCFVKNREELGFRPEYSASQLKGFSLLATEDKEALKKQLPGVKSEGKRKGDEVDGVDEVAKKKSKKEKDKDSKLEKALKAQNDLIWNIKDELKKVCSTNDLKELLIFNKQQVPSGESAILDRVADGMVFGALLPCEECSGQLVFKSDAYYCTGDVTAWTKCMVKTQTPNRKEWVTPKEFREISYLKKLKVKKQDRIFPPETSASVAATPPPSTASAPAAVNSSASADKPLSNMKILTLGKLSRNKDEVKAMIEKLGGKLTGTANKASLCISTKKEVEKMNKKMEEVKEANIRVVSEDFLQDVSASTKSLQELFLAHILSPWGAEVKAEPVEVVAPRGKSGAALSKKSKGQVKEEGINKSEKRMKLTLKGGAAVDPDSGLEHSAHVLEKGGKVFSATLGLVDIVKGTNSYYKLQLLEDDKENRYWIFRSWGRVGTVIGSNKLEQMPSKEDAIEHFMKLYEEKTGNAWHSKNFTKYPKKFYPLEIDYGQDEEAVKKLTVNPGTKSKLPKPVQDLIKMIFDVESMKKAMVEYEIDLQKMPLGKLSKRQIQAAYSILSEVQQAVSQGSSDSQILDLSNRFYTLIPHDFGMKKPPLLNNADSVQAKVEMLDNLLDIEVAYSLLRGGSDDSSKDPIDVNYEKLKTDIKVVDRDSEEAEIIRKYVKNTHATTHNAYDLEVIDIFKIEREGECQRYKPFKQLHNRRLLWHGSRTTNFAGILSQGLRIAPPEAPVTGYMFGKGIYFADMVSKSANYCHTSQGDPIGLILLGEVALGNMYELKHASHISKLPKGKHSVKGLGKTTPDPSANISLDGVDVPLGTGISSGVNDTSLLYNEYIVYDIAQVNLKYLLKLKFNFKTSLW

| SMILES | IC50 [1] | further results |
| --- | --- | --- |
| COc1cccc(C(N)=O)c1 | 30000 nM | – |
| Cc1cccc2c1CCNC2=O | 150 nM | – |
| O=C1NCCc2c(OCCCCN3CCCCC3)cccc21 | 150 nM | – |
| O=C1CCC(=O)N1c1cc(Cc2n[nH]c(=O)c3ccccc23)ccc1F | – | Ki [1]: 12 nM |
| CNCc1ccc(-c2cc3cc(F)cc(C(N)=O)c3o2)cc1.Cl | – | solubility [2]: > 35 mg/mL |
| O=C(c1cc(Cc2n[nH]c(=O)c3ccccc23)ccc1F)N1CCn2nc(C(F)(F)F)nc2C1 [FLUZOPARIB] | – | bioavailability [3]: 35.8% |
